From ChEMBL document CHEMBL3046025, “Fungitoxic Properties of N-Phenylformamidoximes in Control of Benzimidazole-Resistant Isolates of Fungi” (1992)
Activity calls are given as the source filed them. The calls are words filed in the database; no cut-off is given here.

Tests used:
Cercospora beticola [1] = experiment: Antifungal activity against Benzimidalzole-resistant Cercospora beticola isolate 18-11 at 0.001 to 1000 ppm after 14 days by agar dilution method; assay type: functional, organism-based
Cercospora beticola [2] = experiment: Ratio of EC50 for Benzimidalzole-resistant Cercospora beticola isolate 18-11 to EC50 for Benzimidalzole-resistant Cercospora beticola isolate 1-3; assay type: functional
Cercospora beticola [3] = experiment: Ratio of EC50 for Benzimidalzole-sensitive Cercospora beticola isolate 18-1 to EC50 for Benzimidalzole-resistant Cercospora beticola isole 28-8; assay type: functional
Cercospora beticola [4] = experiment: Ratio of EC50 for Benzimidalzole-sensitive Cercospora beticola isolate 22-5 to EC50 for Benzimidalzole-resistant Cercospora beticola isolate 18-2; assay type: functional
Botrytis cinerea [5] = experiment: Ratio of EC50 for Benzimidalzole-resistant Botryotinia fuckeliana isolate Bc-20 to EC50 for Benzimidalzole-resistant Botryotinia fuckeliana isolate Bc-31; assay type: functional
Cercospora beticola [6] = experiment: Ratio of EC50 for Benzimidalzole-sensitive Cercospora beticola isolate 24-3 to EC50 for Benzimidalzole-resistant Cercospora beticola isolate 18-2; assay type: functional
Botrytis cinerea [7] = experiment: Ratio of EC50 for Benzimidalzole-sensitive Botryotinia fuckeliana isolate Bc-3 to EC50 for Benzimidalzole-resistant Botryotinia fuckeliana isolate Bc-44; assay type: functional
Cercospora beticola [8] = experiment: Ratio of EC50 for Benzimidalzole-sensitive Cercospora beticola isolate 18-1 to EC50 for Benzimidalzole-resistant Cercospora beticola isolate 18-2; assay type: functional
Botrytis cinerea [9] = experiment: Antifungal activity against Benzimidalzole-resistant Botryotinia fuckeliana isolate Bc-44 infected kidney bean leaves at 50 ppm applied as soil drench 3 days prior to inoculation; assay type: functional
Cercospora beticola [10] = experiment: Ratio of EC50 for Benzimidalzole-resistant Cercospora beticola isolate 6-13 to EC50 for Benzimidalzole-resistant Cercospora beticola isolate 18-2; assay type: functional
Botrytis cinerea [11] = experiment: Ratio of EC50 for Benzimidalzole-sensitive Botryotinia fuckeliana isolate Bc-9 to EC50 for Benzimidalzole-resistant Botryotinia fuckeliana isolate Bc-31; assay type: functional
Cercospora beticola [12] = experiment: Ratio of EC50 for Benzimidalzole-sensitive Cercospora beticola isolate 24-3 to EC50 for Benzimidalzole-resistant Cercospora beticola isole Cb-19; assay type: functional
Botrytis cinerea [13] = experiment: Antifungal activity against Benzimidalzole-resistant Botryotinia fuckeliana isolate Bc-44 infected kidney bean leaves at 200 ppm 24 hr post-infection measured after 3 days; assay type: functional
Botrytis cinerea [14] = experiment: Antifungal activity against Benzimidalzole-resistant Botryotinia fuckeliana isolate Bc-44 infected compound-treated kidney bean leaves at 3.1 ppm after 4 days; assay type: functional
Botrytis cinerea [15] = experiment: Ratio of EC50 for Benzimidalzole-resistant Botryotinia fuckeliana isolate Bc-20 to EC50 for Benzimidalzole-resistant Botryotinia fuckeliana isolate Bc-44; assay type: functional
Cercospora beticola [16] = experiment: Antifungal activity against Benzimidalzole-resistant Cercospora beticola isolate 20-2 at 0.001 to 1000 ppm after 14 days by agar dilution method; assay type: functional, organism-based
Botrytis cinerea [17] = experiment: Antifungal activity against Benzimidalzole-resistant Botryotinia fuckeliana isolate Bc-44 infected compound-treated kidney bean leaves at 50 ppm after 4 days; assay type: functional
Cercospora beticola [18] = experiment: Antifungal activity against Benzimidalzole-resistant Cercospora beticola isolate 18-2 infected in compound-treated sugar beet seedlings at 3.1 ppm after 12 days; assay type: functional
Cercospora beticola [19] = experiment: Antifungal activity against Benzimidalzole-resistant Cercospora beticola isolate 18-2 infected in compound-treated sugar beet seedlings at 200 ppm after 12 days; assay type: functional
Cercospora beticola [20] = experiment: Ratio of EC50 for Benzimidalzole-resistant Cercospora beticola isolate 18-11 to EC50 for Benzimidalzole-resistant Cercospora beticola isolate 18-2; assay type: functional
Cercospora beticola [21] = experiment: Ratio of EC50 for Benzimidalzole-sensitive Cercospora beticola isolate 22-5 to EC50 for Benzimidalzole-resistant Cercospora beticola isolate 49-4; assay type: functional
Cercospora beticola [22] = experiment: Ratio of EC50 for Benzimidalzole-sensitive Cercospora beticola isolate 22-5 to EC50 for Benzimidalzole-resistant Cercospora beticola isole 28-8; assay type: functional
Botrytis cinerea [23] = experiment: Antifungal activity against Benzimidalzole-sensitive Botryotinia fuckeliana isolate Bc-9 infected compound-treated kidney bean leaves at 50 ppm after 4 days; assay type: functional
Botrytis cinerea [24] = experiment: Ratio of EC50 for Benzimidalzole-resistant Botryotinia fuckeliana isolate Bc-40 to EC50 for Benzimidalzole-resistant Botryotinia fuckeliana isolate Bc-44; assay type: functional
Cercospora beticola [25] = experiment: Ratio of EC50 for Benzimidalzole-resistant Cercospora beticola isolate 6-13 to EC50 for Benzimidalzole-resistant Cercospora beticola isole 28-8; assay type: functional
Cercospora beticola [26] = experiment: Antifungal activity against Benzimidalzole-resistant Cercospora beticola isolate Cb-19 at 0.001 to 1000 ppm after 14 days by agar dilution method; assay type: functional, organism-based
Cercospora beticola [27] = experiment: Ratio of EC50 for Benzimidalzole-resistant Cercospora beticola isolate 18-11 to EC50 for Benzimidalzole-resistant Cercospora beticola isole Cb-19; assay type: functional
Botrytis cinerea [28] = experiment: Antifungal activity against Benzimidalzole-resistant Botryotinia fuckeliana isolate Bc-44 infected compound-treated kidney bean leaves at 12.5 ppm after 4 days; assay type: functional
Cercospora beticola [29] = experiment: Antifungal activity against Benzimidalzole-resistant Cercospora beticola isolate 1-3 at 0.001 to 1000 ppm after 14 days by agar dilution method; assay type: functional, organism-based
Botrytis cinerea [30] = experiment: Antifungal activity against Benzimidalzole-resistant Botryotinia fuckeliana isolate Bc-40 at 0.001 to 1000 ppm after 3 days by agar dilution method; assay type: functional, organism-based
Cercospora beticola [31] = experiment: Antifungal activity against Benzimidalzole-resistant Cercospora beticola isolate Cb-19 infected in sugar beet seedlings at 200 ppm applied as soil drench 3 days prior to inoculation; assay type: functional
Cercospora beticola [32] = experiment: Ratio of EC50 for Benzimidalzole-resistant Cercospora beticola isolate 20-2 to EC50 for Benzimidalzole-resistant Cercospora beticola isolate 1-3; assay type: functional
Botrytis cinerea [33] = experiment: Ratio of EC50 for Benzimidalzole-sensitive Botryotinia fuckeliana isolate Bc-9 to EC50 for Benzimidalzole-resistant Botryotinia fuckeliana isolate Bc-44; assay type: functional
Botrytis cinerea [34] = experiment: Antifungal activity against Benzimidalzole-resistant Botryotinia fuckeliana isolate Bc-44 infected kidney bean leaves at 200 ppm applied as soil drench 3 days prior to inoculation; assay type: functional
Botrytis cinerea [35] = experiment: Antifungal activity against Benzimidalzole-resistant Botryotinia fuckeliana isolate Bc-44 infected kidney bean leaves at 12.5 ppm 24 hr post-infection measured after 3 days; assay type: functional
Cercospora beticola [36] = experiment: Antifungal activity against Benzimidalzole-resistant Cercospora beticola isolate Cb-19 infected in sugar beet seedlings at 12.5 ppm 24 hr-post inoculation; assay type: functional
Cercospora beticola [37] = experiment: Ratio of EC50 for Benzimidalzole-resistant Cercospora beticola isolate 6-13 to EC50 for Benzimidalzole-resistant Cercospora beticola isolate 49-4; assay type: functional
Cercospora beticola [38] = experiment: Ratio of EC50 for […] to EC50 for Benzimidalzole-resistant Cercospora beticola isole 28-8; assay type: functional
Cercospora beticola [39] = experiment: Ratio of EC50 for Benzimidalzole-resistant Cercospora beticola isolate 18-11 to EC50 for Benzimidalzole-resistant Cercospora beticola isole 28-8; assay type: functional
Cercospora beticola [40] = experiment: Antifungal activity against Benzimidalzole-sensitive Cercospora beticola isolate 18-1 at 0.001 to 1000 ppm after 14 days by agar dilution method; assay type: functional, organism-based
Cercospora beticola [41] = experiment: Antifungal activity against Benzimidalzole-resistant Cercospora beticola isolate 6-13 at 0.001 to 1000 ppm after 14 days by agar dilution method; assay type: functional, organism-based
Cercospora beticola [42] = experiment: Ratio of EC50 for Benzimidalzole-resistant Cercospora beticola isolate 6-13 to EC50 for Benzimidalzole-resistant Cercospora beticola isolate 1-3; assay type: functional
Cercospora beticola [43] = experiment: Ratio of EC50 for Benzimidalzole-sensitive Cercospora beticola isolate 24-3 to EC50 for Benzimidalzole-resistant Cercospora beticola isole 28-8; assay type: functional
Botrytis cinerea [44] = experiment: Antifungal activity against Benzimidalzole-resistant Botryotinia fuckeliana isolate Bc-31 at 0.001 to 1000 ppm after 3 days by agar dilution method; assay type: functional, organism-based

Question: How did the Activity (Cercospora beticola [1]) turn out when `C#CCOc1c(Cl)cc(N/C=N/OC)cc1Cl` was run?
Answer: inactive

Question: And the Ratio EC50 (Cercospora beticola [2])?
Answer: > 1000

Question: And the Ratio EC50 (Cercospora beticola [3])?
Answer: > 1000

Question: What about the Ratio EC50 (Cercospora beticola [4]) of the same molecule?
Answer: > 1000

Question: What about the Ratio EC50 (Botrytis cinerea [5]) of the same molecule?
Answer: > 1000

Question: And the Ratio EC50 (Cercospora beticola [6])?
Answer: > 1000

Question: And the Ratio EC50 (Botrytis cinerea [7])?
Answer: > 1000

Question: And the Ratio EC50 (Cercospora beticola [8])?
Answer: > 1000

Question: What about the Activity (Botrytis cinerea [9]) of the same molecule?
Answer: 0%

Question: What about the Ratio EC50 (Cercospora beticola [10]) of the same molecule?
Answer: > 1000

Question: And the Ratio EC50 (Botrytis cinerea [11])?
Answer: > 1000

Question: And the Ratio EC50 (Cercospora beticola [12])?
Answer: > 1000

Question: And the Activity (Botrytis cinerea [13])?
Answer: 100%

Question: And the Activity (Botrytis cinerea [14])?
Answer: 95%

Question: What about the Ratio EC50 (Botrytis cinerea [15]) of the same molecule?
Answer: > 1000

Question: And the Activity (Cercospora beticola [16])?
Answer: inactive

Question: What about the Activity (Botrytis cinerea [17]) of the same molecule?
Answer: 100%

Question: What about the Activity (Cercospora beticola [18]) of the same molecule?
Answer: 91%

Question: What about the Activity (Cercospora beticola [19]) of the same molecule?
Answer: 100%

Question: And the Ratio EC50 (Cercospora beticola [20])?
Answer: > 1000

Question: And the Ratio EC50 (Cercospora beticola [21])?
Answer: > 1000

Question: What about the Ratio EC50 (Cercospora beticola [22]) of the same molecule?
Answer: > 1000

Question: And the Activity (Botrytis cinerea [23])?
Answer: 5%

Question: What about the Ratio EC50 (Botrytis cinerea [24]) of the same molecule?
Answer: > 1000

Question: And the Ratio EC50 (Cercospora beticola [25])?
Answer: > 1000

Question: And the Activity (Cercospora beticola [26])?
Answer: Active

Question: And the Ratio EC50 (Cercospora beticola [27])?
Answer: > 1000

Question: What about the Activity (Botrytis cinerea [28]) of the same molecule?
Answer: 100%

Question: And the Activity (Cercospora beticola [29])?
Answer: Active

Question: And the Activity (Botrytis cinerea [30])?
Answer: inactive

Question: And the Activity (Cercospora beticola [31])?
Answer: 72%

Question: What about the Ratio EC50 (Cercospora beticola [32]) of the same molecule?
Answer: > 1000

Question: What about the Ratio EC50 (Botrytis cinerea [33]) of the same molecule?
Answer: > 1000

Question: And the Activity (Botrytis cinerea [34])?
Answer: 7%

Question: What about the Activity (Botrytis cinerea [35]) of the same molecule?
Answer: 93%

Question: And the Activity (Cercospora beticola [36])?
Answer: 96%

Question: What about the Ratio EC50 (Cercospora beticola [37]) of the same molecule?
Answer: > 1000

Question: And the Ratio EC50 (Cercospora beticola [38])?
Answer: > 1000

Question: And the Ratio EC50 (Cercospora beticola [39])?
Answer: > 1000

Question: What about the Activity (Cercospora beticola [40]) of the same molecule?
Answer: inactive

Question: And the Activity (Cercospora beticola [41])?
Answer: inactive

Question: And the Ratio EC50 (Cercospora beticola [42])?
Answer: > 1000

Question: And the Ratio EC50 (Cercospora beticola [43])?
Answer: > 1000

Question: And the Activity (Botrytis cinerea [44])?
Answer: Active

Question: What does the source list for `C#CCOc1cc(N/C=N/OC)cc(Cl)c1OCC#C`?
Answer: Activity (Cercospora beticola [1]): inactive; Ratio EC50 (Cercospora beticola [2]): > 1000; Ratio EC50 (Cercospora beticola [3]): > 1000; Ratio EC50 (Cercospora beticola [4]): > 1000; Ratio EC50 (Botrytis cinerea [5]): > 1000; Ratio EC50 (Cercospora beticola [6]): > 1000; Ratio EC50 (Botrytis cinerea [7]): > 1000; Ratio EC50 (Cercospora beticola [8]): > 1000; Activity (Botrytis cinerea [9]): 6%; Ratio EC50 (Cercospora beticola [10]): > 1000; Ratio EC50 (Botrytis cinerea [11]): > 1000; Ratio EC50 (Cercospora beticola [12]): > 1000; Activity (Botrytis cinerea [13]): 100%; Activity (Botrytis cinerea [14]): 100%; Ratio EC50 (Botrytis cinerea [15]): > 1000; Activity (Cercospora beticola [16]): inactive; Activity (Botrytis cinerea [17]): 100%; Activity (Cercospora beticola [18]): 84%; Activity (Cercospora beticola [19]): 100%; Ratio EC50 (Cercospora beticola [20]): > 1000; Ratio EC50 (Cercospora beticola [21]): > 1000; Ratio EC50 (Cercospora beticola [22]): > 1000; Activity (Botrytis cinerea [23]): 0%; Ratio EC50 (Botrytis cinerea [24]): > 1000; Ratio EC50 (Cercospora beticola [25]): > 1000; Activity (Cercospora beticola [26]): Active; Ratio EC50 (Cercospora beticola [27]): > 1000; Activity (Botrytis cinerea [28]): 100%; Activity (Cercospora beticola [29]): Active; Activity (Botrytis cinerea [30]): inactive; Activity (Cercospora beticola [31]): 94%; Ratio EC50 (Cercospora beticola [32]): > 1000; Ratio EC50 (Botrytis cinerea [33]): > 1000; Activity (Botrytis cinerea [34]): 77%; Activity (Botrytis cinerea [35]): 100%; Activity (Cercospora beticola [36]): 91%; Ratio EC50 (Cercospora beticola [37]): > 1000; Ratio EC50 (Cercospora beticola [38]): > 1000; Ratio EC50 (Cercospora beticola [39]): > 1000; Activity (Cercospora beticola [40]): inactive; Activity (Cercospora beticola [41]): inactive; Ratio EC50 (Cercospora beticola [42]): > 1000; Ratio EC50 (Cercospora beticola [43]): > 1000; Activity (Botrytis cinerea [44]): Active
